Measurements as given in US9938281B2 (Merck Sharp & Dohme Corp., priority 2012, dated 2018).

Assays:
PI3K-delta = biological target: T1, PI3K-delta (Homo sapiens, UniProt O00329); test: HTRF PI3K biochemical assay, delta isoform; conditions: form screened (neutral or TFA salt) given, read-out: PI3Kdelta IC50
T1 construct: purchased Upstate; Millipore 14-604
Description: HTRF PI3K Biochemical Assay to Measure Intrinsic Potency of Compound Inhibitors
This assay was developed and further optimized from a kit produced by Upstate (Millipore catalog #33-047) and has been configured for HTS and SAR screening. Briefly, this procedure exploits the exquisite specificity and high affinity binding of enzyme reaction substrate phosphatidyl(3,4,5)triphosphate (PIP3) to the GRP1 pleckstrin homology (PH) domain to generate the signal. In the absence of PIP3, an HTRF (Homogeneous Time-Resolved Fluorescence energy transfer) complex is formed consisting of europium (Eu)-labeled anti-GST, GSTtagged GRP1-PH domain, biotin-PIP3 and streptavidin conjugated APC. The native PIP3 produced by PI3-Kinase activity disrupts in a competitive manner the biotin-PIP3 from the PH domain, resulting in the loss of energy transfer (HTRF complex) and a decrease in the signal. The format of this assay is the same for all 4 isoforms of PI3K; the differences lie in the concentration of enzyme used to achieve robust assay window. The alpha, beta, and delta assays are run at 0.5, 1, and 0.3 nM enzymes and the gamma assay is run at 5 nM enzyme. The ATP concentration is 100 uM in the alpha, beta, and delta assays and 50 uM ATP in the gamma assay. All reactions are run at 5 uM PIP2.
Compounds are serially diluted (3-fold in 100% DMSO) across a 384-well polypropylene source plated from column 3 to column 12 and column 13 to column 22, to yield 10 concentration dose response for each test compound. Columns 1, 2, 23 and 24 contain either only DMSO or pharmacological known control inhibitor.
The PI3-Kinase biochemical assay was optimized using the HTRF kit provided by Upstate (Millipore). The assay kit contains six reagents: 1) 4× Reaction Buffer; 2) native PIP2 (substrate); 3) Stop (EDTA); 4) Detection Mix A (Streptavidin-APC); 5) Detection Mix B (Eu-labeled Anti-GST plus GST-tagged PH-domain); 6) Detection Mix C.
PI3Kinase Reaction Buffer is prepared by dilution the stock 1:4 with de-ionized water. […] Enzyme addition and compound pre-incubation are initiated by the addition of 1.25 ul of PI3K (at twice its final concentration) in the 1× reaction buffer to all wells using a BioRaptor. Plates are incubated at room temperature for 15 minutes. Reactions are initiated by addition of 1.25 ul of 2× substrate solution (PIP2 and ATP in 1× reaction buffer) using BioRaptor. Plates are incubated in humidified chamber at room temperature for one hour. Reactions are quenched by addition of 0.625 uL of stop solution to all wells using the BioRaptor. The quenched reactions are then processed to detect product formation by adding 0.625 uL of Detection Solution to all wells using the BioRaptor (Detection mix C, Detection Mix A, and Detection Mix B combined together in an 18:1:1 ratio prepared 2 hours prior to use).
The loss of the HTRF signal is due to the displacement of biotinylated-PIP3 from the PH domain by the PI3K-dependent conversion of PIP2 to PIP3. This loss of signal is nonlinear with respect to both increasing product and time. This non-linear detection will impact accuracy of IC50 calculations; therefore, there is a need for a correction factor to obtain more accurate IC50 values. This correction is derived from a PIP3 standard curve run in a separate assay plate. All data were calculated using the ratio of acceptor (APC) to donor (Europium) fluorescence in each well of the assay plate. […] An IC50 was then calculated fitting the % inhibition data to the equation: % inhibition=min+(Max−min)/1+([inhibitor]/IC50)^n) where min is the % inhibition with inhibitor, max is the signal in DMSO control, and n is the Hill slope.

PI3K-alpha = biological target: T2, PI3K-alpha (Homo sapiens, UniProt P42336); test: HTRF PI3K biochemical assay, alpha isoform; conditions: ratio PI3K-alpha IC50 value / PI3K-delta IC50 value
T2 construct: purchased Upstate; Millipore 14-602
T2 sequence (P42336 whole entry, canonical isoform): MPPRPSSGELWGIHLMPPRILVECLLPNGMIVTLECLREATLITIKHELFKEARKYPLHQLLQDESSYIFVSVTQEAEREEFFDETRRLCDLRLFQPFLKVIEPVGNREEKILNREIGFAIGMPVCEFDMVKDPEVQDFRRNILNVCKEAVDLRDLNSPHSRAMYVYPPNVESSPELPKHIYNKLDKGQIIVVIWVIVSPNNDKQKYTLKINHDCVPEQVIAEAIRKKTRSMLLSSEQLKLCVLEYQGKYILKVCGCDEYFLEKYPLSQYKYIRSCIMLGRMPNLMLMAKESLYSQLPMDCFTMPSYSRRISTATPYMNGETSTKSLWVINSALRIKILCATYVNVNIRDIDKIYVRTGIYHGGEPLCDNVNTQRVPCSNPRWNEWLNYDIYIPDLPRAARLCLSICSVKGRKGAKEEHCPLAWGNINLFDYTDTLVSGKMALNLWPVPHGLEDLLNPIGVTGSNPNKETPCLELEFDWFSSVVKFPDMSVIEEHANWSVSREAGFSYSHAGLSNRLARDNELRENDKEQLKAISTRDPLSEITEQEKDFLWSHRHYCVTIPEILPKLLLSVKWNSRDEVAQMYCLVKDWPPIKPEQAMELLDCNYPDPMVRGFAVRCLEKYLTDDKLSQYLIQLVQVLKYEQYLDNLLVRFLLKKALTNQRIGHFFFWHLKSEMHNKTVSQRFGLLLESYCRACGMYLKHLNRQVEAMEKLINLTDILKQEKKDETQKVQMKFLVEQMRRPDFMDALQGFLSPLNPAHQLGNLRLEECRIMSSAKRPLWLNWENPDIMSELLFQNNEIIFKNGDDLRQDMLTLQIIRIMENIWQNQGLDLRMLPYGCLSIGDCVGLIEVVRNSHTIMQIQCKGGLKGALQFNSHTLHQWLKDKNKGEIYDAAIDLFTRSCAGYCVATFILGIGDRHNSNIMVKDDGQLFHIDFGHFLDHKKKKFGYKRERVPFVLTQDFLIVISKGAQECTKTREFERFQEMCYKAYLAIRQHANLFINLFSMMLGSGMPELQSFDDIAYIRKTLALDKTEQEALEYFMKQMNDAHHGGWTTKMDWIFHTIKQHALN
T2 sequence (P27986 whole entry partner, canonical isoform): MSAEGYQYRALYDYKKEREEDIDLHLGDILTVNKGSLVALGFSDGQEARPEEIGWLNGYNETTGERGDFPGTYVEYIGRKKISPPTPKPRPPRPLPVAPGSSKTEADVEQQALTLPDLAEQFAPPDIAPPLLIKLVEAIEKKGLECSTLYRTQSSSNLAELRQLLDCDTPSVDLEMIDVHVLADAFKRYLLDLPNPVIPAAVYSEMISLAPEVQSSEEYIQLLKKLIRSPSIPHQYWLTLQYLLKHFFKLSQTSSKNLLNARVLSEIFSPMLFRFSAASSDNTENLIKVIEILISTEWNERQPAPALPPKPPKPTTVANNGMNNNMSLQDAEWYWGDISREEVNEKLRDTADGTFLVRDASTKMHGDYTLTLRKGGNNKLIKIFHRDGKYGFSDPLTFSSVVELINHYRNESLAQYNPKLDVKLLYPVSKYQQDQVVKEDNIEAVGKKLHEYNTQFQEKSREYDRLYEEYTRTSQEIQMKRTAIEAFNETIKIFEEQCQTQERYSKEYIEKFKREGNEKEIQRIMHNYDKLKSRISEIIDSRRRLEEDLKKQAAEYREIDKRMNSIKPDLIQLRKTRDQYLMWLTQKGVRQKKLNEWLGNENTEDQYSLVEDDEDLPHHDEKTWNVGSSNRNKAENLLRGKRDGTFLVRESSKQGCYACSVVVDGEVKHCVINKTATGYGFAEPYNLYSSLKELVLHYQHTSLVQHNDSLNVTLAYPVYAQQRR

T1 sequence (O00329 whole entry, canonical isoform): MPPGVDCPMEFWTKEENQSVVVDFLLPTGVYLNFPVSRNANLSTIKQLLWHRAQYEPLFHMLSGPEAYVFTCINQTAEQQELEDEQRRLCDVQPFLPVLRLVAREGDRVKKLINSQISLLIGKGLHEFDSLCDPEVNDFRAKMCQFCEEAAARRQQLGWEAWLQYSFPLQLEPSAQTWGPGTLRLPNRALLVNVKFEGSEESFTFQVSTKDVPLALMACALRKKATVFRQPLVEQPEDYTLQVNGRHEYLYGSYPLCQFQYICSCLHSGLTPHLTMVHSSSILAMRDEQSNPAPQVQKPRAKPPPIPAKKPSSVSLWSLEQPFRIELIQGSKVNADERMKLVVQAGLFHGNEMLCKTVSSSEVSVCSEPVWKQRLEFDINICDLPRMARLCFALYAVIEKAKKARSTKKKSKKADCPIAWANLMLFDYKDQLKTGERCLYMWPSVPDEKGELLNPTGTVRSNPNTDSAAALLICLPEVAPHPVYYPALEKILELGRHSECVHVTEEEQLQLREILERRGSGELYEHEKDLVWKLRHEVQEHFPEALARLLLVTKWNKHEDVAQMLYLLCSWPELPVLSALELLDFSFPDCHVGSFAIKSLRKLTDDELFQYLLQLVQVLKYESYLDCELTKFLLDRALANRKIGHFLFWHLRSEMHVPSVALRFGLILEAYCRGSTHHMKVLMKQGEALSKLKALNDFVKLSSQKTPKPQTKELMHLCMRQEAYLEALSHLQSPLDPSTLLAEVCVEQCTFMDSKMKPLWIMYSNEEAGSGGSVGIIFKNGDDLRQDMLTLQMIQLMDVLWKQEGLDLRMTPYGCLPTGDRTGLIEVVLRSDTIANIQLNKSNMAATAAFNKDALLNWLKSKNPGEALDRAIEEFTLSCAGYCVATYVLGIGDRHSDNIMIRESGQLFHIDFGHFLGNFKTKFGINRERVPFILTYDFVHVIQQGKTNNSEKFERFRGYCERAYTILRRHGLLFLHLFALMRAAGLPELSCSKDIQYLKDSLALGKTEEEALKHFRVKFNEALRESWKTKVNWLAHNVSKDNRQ
T1 sequence (P27986 whole entry partner, canonical isoform): as the sequence (P27986 whole entry partner, canonical isoform) above

Row | Compound | IC50 (PI3K-delta) | Selectivity versus PI3Kalpha (PI3K-alpha)
1 | CCC(=O)N1CC[C@H](Nc2ncnc3c2nc(-c2cnn(CC)c2C)n3CC2CC2)C1 [Compound 9-3, 9-(cyclopropylmethyl)-8-(1-ethyl-5-methyl-1H-pyrazol-4-yl)-N-[(3S)-1-propanoylpyrrolidin-3-yl]-9H-purin-6-amine] | 67 nM | >10
2 | CCC(=O)N1CC[C@H](Nc2ncnc3c2nc(-c2cnn(CC)c2C)n3CC(F)F)C1 [Compound 9-4, 9-(2,2-difluoroethyl)-8-(1-ethyl-5-methyl-1H-pyrazol-4-yl)-N-[(3S)-1-propanoylpyrrolidin-3-yl]-9H-purin-6-amine] | < 1 nM | >10
3 | Cc1ncc(-c2nc3c(N[C@H]4CCN(C(=O)C5CC5)C4)ncnc3n2CC(F)(F)F)cn1 [Compound 9-5, N-[(3S)-1-(cyclopropylcarbonyl)pyrrolidin-3-yl]-8-(2-methylpyrimidin-5-yl)-9-(2,2,2-trifluoroethyl)-9H-purin-6-amine] | 580 nM | >10
4 | CCCN1CC[C@H](Nc2ncnc3c2nc(-c2cnn(CC)c2C)n3C)C1 [Compound 10-1, 8-(1-ethyl-5-methyl-1H-pyrazol-4-yl)-9-methyl-N-[(3S)-1-propylpyrrolidin-3-yl]-9H-purin-6-amine] | 42 nM | >10
5 | CCn1c(-c2cnc(C)nc2)nc2c(NC3CN(C(C)C)CC34CC4)ncnc21 (centres unmarked) [Compound 10-3, (R AND S)-9-ethyl-N-[5-(1-methylethyl)-5-azaspiro[2.4]hept-7-yl]-8-(2-methylpyrimidin-5-yl)-9H-purin-6-amine] | 96 nM | >10
6 | CCNC(=O)N1CCC[C@H](Nc2ncnc3c2nc(-c2cnn(CC)c2C)n3C)C1 [Compound 12-1, (3S)-N-ethyl-3-{[8-(1-ethyl-5-methyl-1H-pyrazol-4-yl)-9-methyl-9H-purin-6-yl]amino}piperidine-1-carboxamide] | 30 nM | >10
7 | CCn1c(-c2cnc(C)nc2)nc2c(N[C@H]3CCN(C(=O)NCCOC)C3)ncnc21 [Compound 12-2, (3S)-3-{[9-ethyl-8-(2-methylpyrimidin-5-yl)-9H-purin-6-yl]amino}-N-(2-methoxyethyl)pyrrolidine-1-carboxamide] | 8.9 nM | >10
8 | CCn1c(-c2cnc(C)nc2)nc2c(N[C@H]3CCN(C(=O)N4CCOCC4)C3)ncnc21 [Compound 12-4, 9-ethyl-8-(2-methylpyrimidin-5-yl)-N-[(3S)-1-(morpholin-4-ylcarbonyl)pyrrolidin-3-yl]-9H-purin-6-amine] | 4.5 nM | >10
9 | CCn1c(-c2cnc(C)nc2)nc2c(N[C@H]3CCN(C(=O)NCC(F)(F)F)C3)ncnc21 [Compound 12-8, (3S)-3-{[9-ethyl-8-(2-methylpyrimidin-5-yl)-9H-purin-6-yl]amino}-N-(2,2,2-trifluoroethyl)pyrrolidine-1-carboxamide] | 9.7 nM | >10
10 | CCn1c(-c2cnc(C)nc2)nc2c(N[C@H]3CCN(C(=O)N4CCC4)C3)ncnc21 [Compound 12-9, N-[(3S)-1-(azetidin-1-ylcarbonyl)pyrrolidin-3-yl]-9-ethyl-8-(2-methylpyrimidin-5-yl)-9H-purin-6-amine] | 1.4 nM | >10
11 | CCn1c(-c2cnc(C)nc2)nc2c(N[C@H]3CCN(C(=O)N4CC(OC)C4)C3)ncnc21 [Compound 12-10, 9-ethyl-N-{(3S)-1-[(3-methoxyazetidin-1-yl)carbonyl]pyrrolidin-3-yl}-8-(2-methylpyrimidin-5-yl)-9H-purin-6-amine] | < 1 nM | >10
12 | CCn1c(-c2cnc(C)nc2)nc2c(N[C@H]3CCN(C(=O)N4CCC(C)(C)C4)C3)ncnc21 [Compound 12-11, N-{(3S)-1-[(3,3-dimethylpyrrolidin-1-yl)carbonyl]pyrrolidin-3-yl}-9-ethyl-8-(2-methylpyrimidin-5-yl)-9H-purin-6-amine] | < 1 nM | >10
13 | CCn1c(-c2cnc(C)nc2)nc2c(N[C@H]3CCN(C(=O)N4CC[C@@H](F)C4)C3)ncnc21 [Compound 12-12, 9-ethyl-N-[(3S)-1-{[(3R)-3-fluoropyrrolidin-1-yl]carbonyl}pyrrolidin-3-yl]-8-(2-methylpyrimidin-5-yl)-9H-purin-6-amine] | 2.9 nM | >10
14 | CCn1c(-c2cnc(C)nc2)nc2c(N[C@H]3CCN(C(=O)N4CC[C@H](F)C4)C3)ncnc21 [Compound 12-13, 9-ethyl-N-[(3S)-1-{[(3S)-3-fluoropyrrolidin-1-yl]carbonyl}pyrrolidin-3-yl]-8-(2-methylpyrimidin-5-yl)-9H-purin-6-amine] | 1.7 nM | >10
15 | CCn1c(-c2cnc(C)nc2)nc2c(N[C@H]3CCN(C(=O)N4CC[C@H](OC)C4)C3)ncnc21 [Compound 12-14] | 1.6 nM | >10

Results, then the compound that gave them:

Row | IC50 (PI3K-delta) | Selectivity versus PI3Kalpha (PI3K-alpha) | Compound
16 | 41 nM | >10 | CCn1c(-c2cnc(C)nc2)nc2c(NC3CN(C(C)C4CC4)CC34CC4)ncnc21 (centres unmarked) [Compound 10-2, N(S AND R)-[5-(1-(S AND R)-cyclopropylethyl)-5-azaspiro[2.4]hept-7-yl]-9-ethyl-8-(2-methylpyrimidin-5-yl)-9H-purin-6-amine]
17 | 7.4 nM | >10 | CCn1ncc(-c2nc3c(N[C@H]4CCCN(S(=O)(=O)CC)C4)ncnc3n2C)c1C [Compound 11-1, 8-(1-ethyl-5-methyl-1H-pyrazol-4-yl)-N-[(3S)-1-(ethylsulfonyl)piperidin-3-yl]-9-methyl-9H-purin-6-amine]
18 | 1.2 nM | >10 | CCn1c(-c2cnc(C)nc2)nc2c(N[C@H]3CCN(C(=O)N4CCCCC4)C3)ncnc21 [Compound 12-5, 9-ethyl-8-(2-methylpyrimidin-5-yl)-N-[(3S)-1-(piperidin-1-ylcarbonyl)pyrrolidin-3-yl]-9H-purin-6-amine]
19 | 1.7 nM | >10 | CCn1c(-c2cnc(C)nc2)nc2c(N[C@H]3CCN(C(=O)NC4CC4)C3)ncnc21 [Compound 12-6, (3S)-N-cyclopropyl-3-{[9-ethyl-8-(2-methylpyrimidin-5-yl)-9H-purin-6-yl]amino}pyrrolidine-1-carboxamide]
20 | 6.4 nM | >10 | CCn1c(-c2cnc(C)nc2)nc2c(N[C@H]3CCN(C(=O)NCC4CC4)C3)ncnc21 [Compound 12-7, (3S)-N-(cyclopropylmethyl)-3-{[9-ethyl-8-(2-methylpyrimidin-5-yl)-9H-purin-6-yl]amino}pyrrolidine-1-carboxamide]
21 | 8.2 nM | >10 | CCn1c(-c2cnc(C)nc2)nc2c(N[C@H]3CCN(C(=O)N4CC[C@@H](OC)C4)C3)ncnc21 [Compound 12-15]
22 | 16 nM | >10 | CCn1c(-c2cnc(C)nc2)nc2c(N[C@H]3CCN(C(=O)NC4CCCCC4)C3)ncnc21 [Compound 12-16, (3S)-N-cyclohexyl-3-{[9-ethyl-8-(2-methylpyrimidin-5-yl)-9H-purin-6-yl]amino}pyrrolidine-1-carboxamide]
